# From ChEMBL document CHEMBL4145497, “Discovery of 2-aminothiazolyl berberine derivatives as effectively antibacterial agents toward clinically drug-resistant Gram-negative Acinetobacter baumanii” (Eur J Med Chem, 2018)
# Tests used:
# Assay type in all cases: functional
# Staphylococcus aureus [1] = assay: Antibacterial activity against Staphylococcus aureus ATCC 25923 after 18 to 24 hrs by CLSI two fold serial dilution method
# Bacillus subtilis = assay: Antibacterial activity against Bacillus subtilis ATCC 21216 after 18 to 24 hrs by CLSI two fold serial dilution method
# Micrococcus luteus = assay: Antibacterial activity against Micrococcus luteus ATCC 4698 after 18 to 24 hrs by CLSI two fold serial dilution method
# Escherichia coli [2] = assay: Antibacterial activity against Escherichia coli DH52 after 18 to 24 hrs by CLSI two fold serial dilution method
# Pseudomonas aeruginosa [3] = assay: Antibacterial activity against Pseudomonas aeruginosa ATCC 27853 after 18 to 24 hrs by CLSI two fold serial dilution method
# Candida albicans [4] = assay: Antifungal activity against Candida albicans ATCC 76615 by CLSI two fold serial dilution method
# Cyberlindnera jadinii = assay: Antifungal activity against Candida utilis ATCC 9950 by CLSI two fold serial dilution method; details: Williopsis jadinii
# Pichia norvegensis = assay: Antifungal activity against Candida mycoderma ATCC 96918 by CLSI two fold serial dilution method
# Aspergillus flavus = assay: Antifungal activity against Aspergillus flavus ATCC 204304 by CLSI two fold serial dilution method
# Saccharomyces cerevisiae = assay: Antifungal activity against Saccharomyces cerevisiae ATCC 9763 by CLSI two fold serial dilution method
# Candida parapsilosis = assay: Antifungal activity against Candida parapsilosis ATCC 22019 by CLSI two fold serial dilution method; details: Lodderomyces parapsilosis
# Staphylococcus aureus [5] = assay: Antibacterial activity against methicillin-resistant Staphylococcus aureus N315 after 18 to 24 hrs by CLSI two fold serial dilution method
# Enterococcus faecalis = assay: Antibacterial activity against drug-resistant Enterococcus faecalis after 18 to 24 hrs by CLSI two fold serial dilution method
# Escherichia coli [6] = assay: Antibacterial activity against drug-resistant Escherichia coli after 18 to 24 hrs by CLSI two fold serial dilution method
# Pseudomonas aeruginosa [7] = assay: Antibacterial activity against drug-resistant Pseudomonas aeruginosa after 18 to 24 hrs by CLSI two fold serial dilution method
# Klebsiella pneumoniae = assay: Antibacterial activity against drug-resistant Klebsiella pneumoniae after 18 to 24 hrs by CLSI two fold serial dilution method
# Acinetobacter baumannii = assay: Antibacterial activity against drug-resistant Acinetobacter baumannii after 18 to 24 hrs by CLSI two fold serial dilution method
# Candida albicans [8] = assay: Antifungal activity against drug-resistant Candida albicans by CLSI two fold serial dilution method
# Candida tropicalis = assay: Antifungal activity against drug-resistant Candida tropicalis by CLSI two fold serial dilution method
# Aspergillus fumigatus = assay: Antifungal activity against drug-resistant Aspergillus fumigatus by CLSI two fold serial dilution method
Compound,MIC (Staphylococcus aureus [1]),MIC (Bacillus subtilis),MIC (Micrococcus luteus),MIC (Escherichia coli [2]),MIC (Pseudomonas aeruginosa [3]),MIC (Candida albicans [4]),MIC (Cyberlindnera jadinii),MIC (Pichia norvegensis),MIC (Aspergillus flavus),MIC (Saccharomyces cerevisiae),MIC (Candida parapsilosis),MIC (Staphylococcus aureus [5]),MIC (Enterococcus faecalis),MIC (Escherichia coli [6]),MIC (Pseudomonas aeruginosa [7]),MIC (Klebsiella pneumoniae),MIC (Acinetobacter baumannii),MIC (Candida albicans [8]),MIC (Candida tropicalis),MIC (Aspergillus fumigatus)
CCCCCCCCOc1c(OC)cc(/C=N/Nc2nccs2)c2c1CN1CCc3cc4c(cc3C1C2)OCO4 (stereo unspecified),230 µM,450 µM,450 µM,450 µM,230 µM,230 µM,460 µM,460 µM,460 µM,460 µM,230 µM,–,–,–,–,–,–,–,–,–
COc1cc(/C=N/NC(N)=S)c2c(c1OCc1ccccc1F)CN1CCc3cc4c(cc3C1C2)OCO4 (stereo unspecified),30 µM,240 µM,240 µM,240 µM,480 µM,480 µM,480 µM,240 µM,480 µM,960 µM,240 µM,30 µM,240 µM,240 µM,480 µM,480 µM,4 µM,480 µM,120 µM,4 µM
COc1cc(/C=N/NC(N)=S)c2c(c1OCc1ccc(Cl)c(Cl)c1)CN1CCc3cc4c(cc3C1C2)OCO4 (stereo unspecified),220 µM,220 µM,440 µM,110 µM,220 µM,440 µM,220 µM,440 µM,440 µM,220 µM,220 µM,220 µM,440 µM,110 µM,220 µM,220 µM,30 µM,440 µM,110 µM,3 µM
COc1cc(/C=N/NC(N)=S)c2c(c1OCC#N)CN1CCc3cc4c(cc3C1C2)OCO4 (stereo unspecified),280 µM,550 µM,280 µM,280 µM,280 µM,280 µM,280 µM,550 µM,280 µM,280 µM,280 µM,280 µM,280 µM,280 µM,280 µM,550 µM,280 µM,280 µM,280 µM,70 µM
COc1cc(/C=N/NC(N)=S)c2c(c1OCc1ccc(Cl)cc1Cl)CN1CCc3cc4c(cc3C1C2)OCO4 (stereo unspecified),110 µM,220 µM,110 µM,440 µM,220 µM,110 µM,440 µM,220 µM,440 µM,880 µM,10 µM,110 µM,440 µM,440 µM,220 µM,220 µM,3 µM,110 µM,220 µM,110 µM
COc1cc(/C=N/NC(N)=S)c2c(c1OCc1cccc(Cl)c1)CN1CCc3cc4c(cc3C1C2)OCO4 (stereo unspecified),60 µM,120 µM,470 µM,230 µM,230 µM,230 µM,470 µM,120 µM,230 µM,230 µM,120 µM,120 µM,230 µM,470 µM,470 µM,120 µM,120 µM,470 µM,230 µM,120 µM
COc1cc(/C=N/NC(N)=S)c2c(c1OCc1ccc(Cl)cc1)CN1CCc3cc4c(cc3C1C2)OCO4 (stereo unspecified),230 µM,470 µM,230 µM,230 µM,230 µM,230 µM,470 µM,230 µM,470 µM,470 µM,7 µM,230 µM,230 µM,230 µM,230 µM,120 µM,230 µM,230 µM,230 µM,470 µM
OC(Cn1cncn1)(Cn1cncn1)c1ccc(F)cc1F [FLUCONAZOLE],–,–,–,–,–,3 µM,30 µM,10 µM,840 µM,50 µM,7 µM,–,–,–,–,–,–,10 µM,30 µM,840 µM
CCn1cc(C(=O)O)c(=O)c2cc(F)c(N3CCNCC3)cc21 [NORFLOXACIN],2 µM,3 µM,6 µM,50 µM,50 µM,–,–,–,–,–,–,30 µM,800 µM,1600 µM,1600 µM,800 µM,800 µM,–,–,–
